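Results reflect a 48-hour exposure of cells in 96-well plates to compound at five concentrations. GI50 is the concentration that inhibits growth by half.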 Calls of active or inactive are those of the source. No stated cut-off is given here; in the data, active = GI50 up to about 1.1 µM and inactive = higher.
Columns and labels:
Assay in all cases: DTP human tumour cell line panel, 48 h
OVCAR-8 = system: OVCAR-8
OVCAR-5 = system: OVCAR-5
786-0 = system: 786-0
SF-295 = system: SF-295
IGROV-1 = system: IGROV-1
K562 = system: K562
SK-MEL-5 = system: SK-MEL-5
OVCAR-3 = system: OVCAR-3
MOLT-4 = system: MOLT-4
SF-539 = system: SF-539
SW-620 = system: SW-620
Malme-3M = system: Malme-3M
HT-29 = system: HT-29
RXF 393 = system: RXF 393
NCI-H226 = system: NCI-H226
CCRF-CEM = system: CCRF-CEM
SK-MEL-2 = system: SK-MEL-2
OVCAR-4 = system: OVCAR-4
NCI-H522 = system: NCI-H522
DU-145 = system: DU-145

SMILES | GI50 (OVCAR-8) | GI50 (OVCAR-5) | GI50 (786-0) | GI50 (SF-295) | GI50 (IGROV-1) | GI50 (K562) | GI50 (SK-MEL-5) | GI50 (OVCAR-3) | GI50 (MOLT-4) | GI50 (SF-539) | GI50 (SW-620) | GI50 (Malme-3M) | GI50 (HT-29) | GI50 (RXF 393) | GI50 (NCI-H226) | GI50 (CCRF-CEM) | GI50 (SK-MEL-2) | GI50 (OVCAR-4) | GI50 (NCI-H522) | GI50 (DU-145)
CSC1=N/C(=C\c2ccco2)C(=O)N1CN1CCOCC1 | 58.9 µM (inactive) | > 100 µM (inactive) | 48.6 µM (inactive) | > 100 µM (inactive) | > 61.1 µM (inactive) | 42.5 µM (inactive) | 41.1 µM (inactive) | > 100 µM (inactive) | 59.7 µM (inactive) | 17.2 µM (inactive) | 31.7 µM (inactive) | > 46.1 µM (inactive) | 33.6 µM (inactive) | 20.4 µM (inactive) | 75 µM (inactive) | 30.4 µM (inactive) | > 91.4 µM (inactive) | > 100 µM (inactive) | > 100 µM (inactive) | 42.3 µM (inactive)
CC(C)(C)[Si](C)(C)OCC1OC(n2cnc3c(=O)[nH]c(N)nc32)C(O[Si](C)(C)C(C)(C)C)C1O[Si](C)(C)C(C)(C)C (stereo not given) | 3.2 µM (inactive) | 2.33 µM (inactive) | 1.67 µM (inactive) | 1.55 µM (inactive) | 1.92 µM (inactive) | 1.22 µM (inactive) | 0.594 µM (active) | 1.47 µM (inactive) | 1.24 µM (inactive) | 2.17 µM (inactive) | 2.47 µM (inactive) | 1.88 µM (inactive) | 1.8 µM (inactive) | 2.04 µM (inactive) | 2.84 µM (inactive) | 1.3 µM (inactive) | 0.176 µM (active) | 1.74 µM (inactive) | 1.68 µM (inactive) | 2.33 µM (inactive)
CSc1ncnc2c1cnn2Cc1cn(CCCCO)nn1 | > 100 µM (inactive) | > 100 µM (inactive) | > 100 µM (inactive) | > 100 µM (inactive) | > 100 µM (inactive) | > 100 µM (inactive) | > 100 µM (inactive) | > 100 µM (inactive) | > 100 µM (inactive) | > 100 µM (inactive) | > 100 µM (inactive) | > 100 µM (inactive) | > 100 µM (inactive) | > 100 µM (inactive) | > 100 µM (inactive) | > 100 µM (inactive) | > 100 µM (inactive) | > 100 µM (inactive) | > 100 µM (inactive) | > 100 µM (inactive)
NCCCCNCCCN1CC1 | 0.883 µM (active) | 5.27 µM (inactive) | 0.359 µM (active) | 4.09 µM (inactive) | 2.77 µM (inactive) | 1.75 µM (inactive) | 1.71 µM (inactive) | 0.619 µM (active) | 1 µM (active) | 0.628 µM (active) | 4.16 µM (inactive) | 1.77 µM (inactive) | 4.55 µM (inactive) | 0.123 µM (active) | 2.67 µM (inactive) | 0.951 µM (active) | 0.752 µM (active) | 0.205 µM (active) | 2.47 µM (inactive) | 1.77 µM (inactive)
COC(=O)c1c2c(cc3c1CC1(C3)Cc3cc4c(c(C(C)=O)c3C1)CCC4)C=CC2 (stereo not given) | > 31.6 µM (inactive) | > 31.6 µM (inactive) | > 31.6 µM (inactive) | > 31.6 µM (inactive) | > 31.6 µM (inactive) | 27 µM (inactive) | 18.6 µM (inactive) | > 31.6 µM (inactive) | > 31.6 µM (inactive) | > 31.6 µM (inactive) | > 10 µM (inactive) | > 10 µM (inactive) | 18.7 µM (inactive) | > 10 µM (inactive) | > 31.6 µM (inactive) | 20.7 µM (inactive) | > 31.6 µM (inactive) | 24.5 µM (inactive) | 27.6 µM (inactive) | > 31.6 µM (inactive)
